Test results as given in patent US10085442B2, “Agrochemical formulation” (SYNGENTA PARTICIPATIONS AG, priority 2014, dated 2018).

Test: Rainfastness of cyantraniliprole on soya leaf (Example 10)
Format: physicochemical, Glycine Max (Williams variety)
Settings: rain 10 mm/hour for one hour, 0.5 g of water replaced by copolymer
Protocol: A range of substrates can be used in this test with the chosen material in this example being a soya leaf. Herein the soya, Glycine Max (Williams variety), was grown for 4 weeks in 4 inch pots with the top 2 tri-foliates used in the study. The leaves were mounted using double sided tape to flat tiles (30 cm by 30 cm) at an even spacing of 6 leaves per tile.
A deposition solution was then prepared at the concentration which would be used under commercial application conditions. In this case 0.12 g of cyantraniliprole technical was added to […] water for the control and the effect of the styrene malemide co-polymer determined by creating a similar sample with 0.5 g of the water replaced by styrene malemide co-polymer. […]
The quantities of cyantraniliprole in the acetonitrile solutions determined by mass spectrometry using a Waters Acquity UPLC and Thermo TSQ Quantum Ultra Triple Quadrupole MS Instrument or just LC/MS/MS. • Column: • Phase Ace C18 • Length (mm) 50 • Internal diameter (mm) 3.0 • Particle Size (μm) 3 • and the % active ingredient remaining after rainfall determined by dividing the quantity of cyantraniliprole on each leaf after rainfall by that before rainfall. • Cyantraniliprole: 2% cyantraniliprole remained on the leaves. • Cyantraniliprole+styrene malemide copolymer: 45% cyantraniliprole remained on the leaves.

With `CNC(=O)c1cc(C#N)cc(C)c1NC(=O)c1cc(Br)nn1-c1ncccc1Cl` [Cyantraniliprole, cyantraniliprole] the “% cyantraniliprole remained on the leaves after rainfall” value was 2%.
